Active and inactive are the calls of the source. The calls are words filed in the database; no cut-off is given here. Positions of bridges follow the written chain, without caps; N, C: chain ends. Non-standard residues stand in square brackets, D forms with d. Residues, ends and D or L forms follow the SMILES beside them. *: point of attachment. Benzoyl(2-OMe,5-SO2F) = COc1ccc(S(=O)(=O)F)cc1C(=O)*; S5 = C=CCCC[C@](C)(N)C(=O)O; Dap = NC[C@H](N)C(=O)O
How the values were obtained:
[1] = test system: A549; assay: Potentiation of etoposide-induced apoptosis in NucLight Red-labeled human A549 cells assessed as decrease in cell viability at 10 uM measured for 24 to 72 hrs in presence of etoposide by IncuCyte S3 live cell analysis; type: functional, cell-based; conditions: time 24-72 hrs
[2] = test system: A549; assay: Induction of apoptosis in NucLight Red-labeled human A549 cells assessed as decrease in cell viability at 10 uM measured for 24 to 72 hrs by IncuCyte S3 live cell analysis; type: functional, cell-based; conditions: time 24-72 hrs
[3] = biological target: T1, Induced myeloid leukemia cell differentiation protein Mcl-1 (Homo sapiens, UniProt Q07820); assay: (§1) Covalent binding affinity to N-terminal His6-tagged human Mcl-1 ligand binding domain (172 to 323 residues) expressed in Escherichia coli BL21(DE3) gold pLysS cells assessed as stable covalent adduct formation by measuring reaction half life at 100 uM incubated for 16 hrs by SDS PAGE analysis
T1 sequence (Q07820 whole entry, the tested form may be a part): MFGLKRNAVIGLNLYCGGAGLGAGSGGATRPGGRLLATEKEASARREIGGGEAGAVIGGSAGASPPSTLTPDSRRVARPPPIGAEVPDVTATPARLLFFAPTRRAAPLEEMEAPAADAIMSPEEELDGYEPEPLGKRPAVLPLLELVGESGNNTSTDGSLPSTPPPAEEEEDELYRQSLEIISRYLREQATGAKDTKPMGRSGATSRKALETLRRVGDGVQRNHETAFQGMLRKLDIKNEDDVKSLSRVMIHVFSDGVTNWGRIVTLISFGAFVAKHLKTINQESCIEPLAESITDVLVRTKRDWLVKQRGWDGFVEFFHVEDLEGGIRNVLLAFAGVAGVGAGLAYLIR

[4] = species on record: Homo sapiens; assay: Covalent binding affinity to N-terminal His6-tagged human Mcl-1 ligand binding domain (172 to 323 residues) Lys234Ala mutant expressed in Escherichia coli BL21(DE3) gold pLysS cells assessed as increase in mass of protein at 100 uM incubated for 16 hrs by LC-MS analysis
[5] = species on record: Homo sapiens; assay: as §1, with “residues) His252Ala mutant” for “residues)”, “band shift” for “reaction half life”
[6] = biological target: T1, Induced myeloid leukemia cell differentiation protein Mcl-1; assay: Covalent binding affinity to N-terminal His6-tagged human Mcl-1 ligand binding domain (172 to 323 residues) expressed in Escherichia coli BL21(DE3) gold pLysS cells assessed as increase in mass of protein at 100 uM incubated for 16 hrs by LC-MS analysis
[7] = test system: A549; assay: Potentiation of etoposide-induced apoptosis in NucLight Red-labeled human A549 cells assessed as decrease in cell viability at 50 uM measured for 24 to 72 hrs in presence of etoposide by IncuCyte S3 live cell analysis; type: functional, cell-based; conditions: time 24-72 hrs
[8] = biological target: T1, Induced myeloid leukemia cell differentiation protein Mcl-1; assay: (§2) Covalent binding affinity to His252 residue of N-terminal His6-tagged 13C(epsilon)-methionine-labeled human Mcl-1 ligand binding domain (172 to 323 residues) expressed in Escherichia coli BL21(DE3) gold pLysS cells assessed as chemical shift perturbations by measuring 1H methyl resonances for binding site Thr259 and Ile181 residues at 100 uM by 1D 1H-aliphatic NMR spectroscopy
[9] = biological target: T2, Bcl-2-related protein A1 (Homo sapiens) (UniProt Q16548); assay: Covalent binding affinity to N-terminal His6-tagged human Bfl-1 (1 to 149 residues) assessed as band shift at 100 uM incubated for 16 hrs by SDS PAGE analysis
T2 sequence (whole entry): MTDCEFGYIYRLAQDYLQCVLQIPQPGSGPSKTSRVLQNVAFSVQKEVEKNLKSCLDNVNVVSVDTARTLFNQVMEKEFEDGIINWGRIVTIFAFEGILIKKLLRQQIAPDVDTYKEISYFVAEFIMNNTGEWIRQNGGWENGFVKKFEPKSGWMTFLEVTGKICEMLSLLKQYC

[10] = biological target: T1, Induced myeloid leukemia cell differentiation protein Mcl-1; assay: Covalent binding affinity to 15N-labeled human Mcl-1 ligand binding domain (172 to 323 residues) assessed as His252 resonance at 250 uM in presence of BIM BH3 peptide by 2D[15N,1H]HMQC spectroscopy
[11] = test system: A549; assay: Induction of apoptosis in NucLight Red-labeled human A549 cells assessed as decrease in cell viability at 50 uM measured for 24 to 72 hrs by IncuCyte S3 live cell analysis; type: functional, cell-based; conditions: time 24-72 hrs
[12] = biological target: T1, Induced myeloid leukemia cell differentiation protein Mcl-1; assay: Displacement of biotinylated BH3 peptide from N-terminal His6-tagged human Mcl-1 ligand binding domain (172 to 323 residues) expressed in Escherichia coli BL21(DE3) gold pLysS cells preincubated with protein for 2 hrs followed by incubation with BH3 peptide for 2 hrs by DELFIA assay
[13] = biological target: T1, Induced myeloid leukemia cell differentiation protein Mcl-1; assay: as §2, with “13C/1H” for “1H”, “Met250 residue” for “Thr259 and Ile181 residues”, “2D [1H,13C]-aliphatic” for “1D 1H-aliphatic”
[14] = biological target: T2, Bcl-2-related protein A1 (Homo sapiens); assay: Displacement of biotinylated BH3 peptide from N-terminal His6-tagged human Bfl-1 (1 to 149 residues) preincubated with protein for 2 hrs followed by incubation with BH3 peptide for 2 hrs by DELFIA assay; conditions: time 4.0 hrs
[15] = biological target: T1, Induced myeloid leukemia cell differentiation protein Mcl-1; assay: Covalent binding affinity to N-terminal His6-tagged human Mcl-1 ligand binding domain (172 to 323 residues) expressed in Escherichia coli BL21(DE3) gold pLysS cells assessed as stable covalent adduct formation by measuring reaction half life at 100 uM incubated for 16 hrs by LC-MS analysis
[16] = biological target: T1, Induced myeloid leukemia cell differentiation protein Mcl-1; assay: (§3) Covalent binding affinity to N-terminal His6-tagged human Mcl-1 ligand binding domain (172 to 323 residues) expressed in Escherichia coli BL21(DE3) gold pLysS cells assessed as stable covalent adduct formation by measuring band shift at 100 uM incubated for 16 hrs by SDS PAGE analysis
[17] = biological target: T1, Induced myeloid leukemia cell differentiation protein Mcl-1; assay: Covalent binding affinity to His residues of Mcl-1 in NucLight Red-labeled human A549 cell lysates assessed as stable adduct formation by measuring band shift at 100 uM incubated for 3 hrs by western blot analysis; type: subcellular
[18] = species on record: Homo sapiens; assay: as §3, with “residues) Lys234Ala mutant” for “residues)”
[19] = biological target: T1, Induced myeloid leukemia cell differentiation protein Mcl-1; assay: Covalent binding affinity to 15N-labeled human Mcl-1 ligand binding domain (172 to 323 residues) assessed as broadening of binding site His224 resonance at 250 uM in presence of BIM BH3 peptide by 2D[15N,1H]HMQC spectroscopy
[20] = test system: A549; assay: Induction of cell lysis in NucLight Red-labeled human A549 cells assessed as cell bursting at 100 uM measured after 20 mins by IncuCyte S3 live cell analysis based fluorescence microscopy; type: toxicity; conditions: a549, 20 min
[21] = biological target: T1, Induced myeloid leukemia cell differentiation protein Mcl-1; assay: Covalent binding affinity to His residues of Mcl-1 in intact NucLight Red-labeled human A549 cells assessed as stable adduct formation by measuring band shift at 50 to 100 uM incubated for 12 hrs with treatment replenishment for every 3 hrs by western blot analysis; type: cell-based; conditions: dose 50-100 µM

## Cc1nn(C)c(COc2ccc(N3CCN(S(=O)(=O)N(C)C)CC3)cc2)c1-c1cccc2c(CCCOc3cccc4ccccc34)c(C(=O)O)n(CCN3CCOCC3)c12
[1]
  Activity: Active
[2]
  Activity: inactive

## CC[C@H](C)[C@H](NC(=O)[C@H](CNC(=O)c1cc(S(=O)(=O)F)ccc1OC)NC(C)=O)C(=O)N[C@@H](C)C(=O)N[C@@H](CCC(=O)O)C(=O)N[C@@H](CCC(N)=O)C(=O)N[C@@H](CC(C)C)C(=O)N[C@@H](CCCNC(=N)N)C(=O)N[C@@]1(C)CCC/C=C\CCC[C@@](C)(C(=O)N[C@@H](Cc2ccccc2)C(N)=O)NC(=O)[C@H](CC(=O)O)NC(=O)CNC(=O)[C@H]([C@@H](C)CC)NC1=O (Ac-[Dap](Benzoyl(2-OMe,5-SO2F))IAEQLR[S5]IGD[S5]F-NH2; staple (Z) 8-12)
[3]
  T1/2: 6 h
[4]
  Activity: 1740 Da
[5]
  Activity: Active
[6]
  Activity: 1740 Da
[7]
  Activity: Active
[8]
  Activity: Active
[9]
  Activity: inactive
[10]
  Activity: Active
[11]
  Activity: inactive
[12]
  IC50: 18 nM
[13]
  Activity: Active
[14]
  Activity: inactive
[15]
  T1/2: 6 h
[16]
  Activity: Active
[17]
  Activity: Active
[18]
  Activity: Active
[19]
  Activity: Active
[20]
  Activity: Non-Toxic
[21]
  Activity: Active

— ChEMBL document CHEMBL5550138, “Histidine-Covalent Stapled Alpha-Helical Peptides Targeting hMcl-1” (J Med Chem, 2024)
